Experimental data as given in patent US11180657B2, “Polysulfonated fluorescence dyes” (ATTO-TEC GmbH, priority 2017, dated 2021).
Marks after values point to notes of the source that are not given here.

Columns and labels:
Type in all cases: physicochemical
streptavidin = target: T1, streptavidin (Streptomyces avidinii, UniProt P22629); test: Fluorescence quantum yield of the dye after coupling to streptavidin, relative to the uncoupled dye; conditions: streptavidin conjugate
T1 construct: purchased IBA
Excerpt: The average number of dye molecules per biomolecule is expressed by the “degree of labeling” (DOL). […] Since the dye also absorbs in UV, the (total) absorption measured there must still be corrected with the absorption of the dye at this wavelength in order to obtain the actual biomolecule absorption. For this purpose, with commercial dyes, so-called CF values (correction factor values) are given, which describe the ratio of absorptions of the dye at the longwave maximum and at 260 nm or 280 nm.
From the thus obtained (individual) absorptions of dye and biomolecule in the conjugate, taking into consideration the two extinction coefficients, the quotient is formed, which directly indicates the molecular concentration ratio and thus the mean number of dye molecules per biomolecule (“degree of labeling,” DOL).
The compounds listed in Table 1 belong to the class of rhodamines with the same chromophore system. In an aqueous solution at room temperature they all have a comparably high fluorescence quantum yield of about 90%. […] Thus with established marking procedures, a much better detection reliability is achieved.
2 mg of streptavidin (IBA, content approx. 75%) are dissolved under cautious swirling in a glass vial with 1 ml of PBS buffer (pH 7.4) and 50 μl of a 0.2 M sodium hydrogen carbonate solution, which is set to a pH of 9 with sodium hydroxide. The clear solution has a pH-value of 8.3.
40.5 μl of a solution of 170 μg of compound 7 in 50 μl of dry DMSO are added; this corresponds to a dye-streptavidin ratio of 4:1.
The reaction solution is kept for two hours at room temperature and then kept overnight in the refrigerator at 4° C.
Purification is performed in the usual manner over superfine Sephadex G25 (column length 40 cm, diameter 2.5 cm) with PBS buffer as the eluent. The first colored zone contains the streptavidin conjugate.
The DOL can be calculated from the absorption spectrum of the conjugate fraction by the known procedure.

[1] = Absorption maximum of the dye
Excerpt: (§1) Examples of the compounds according to the invention are listed in Tables 2-6, where the structures as well as the absorption and fluorescence maxima are indicated. The spectra of selected compounds are shown FIGS. 5-18.

[2] = Fluorescence maximum of the dye; conditions: solvent PBS pH 7.4
Excerpt: as §1

[3] = Lactone or pseudobase formation in aqueous weakly alkaline solution; conditions: aqueous weakly alkaline solutions; reversible
Excerpt: Normally such lactones are adequately stabilized only in aprotic solvents such as acetone or chloroform. In protic solvents the carboxyl group is deprotonated and a slightly more short-wave absorbing and fluorescent zwitterion is formed. In the exemplary compounds, however, colorless compounds are formed due to the strong electron attraction of the indicated substituents, due to internal ester formation and the associated interruption of the conjugated system. If the carboxyl group is not free but is present as an ester or tertiary amide, so-called pseudobases are formed, through nucleophilic attack (hydroxide ions etc.) at the central carbon atom, which is stronger positivized by the electron-attracting substituents, which pseudobases are likewise colorless due to the interruption of the conjugated system. Both reactions are reversible; by changing the pH value, the dielectric constant (“polarity”) and/or the capability of hydrogen bridge bonding (“proticity”), the dye can be restored. Therefore such compounds can in principle be used as probes for the properties of their direct environment: Depending on the milieu, the molecules are present in colorless or colored form. Associated therewith is also a sort of fluorogenicity, because the longwave fluorescence appears only in the dye form.

T1 sequence (P22629 38-163 limits assumed): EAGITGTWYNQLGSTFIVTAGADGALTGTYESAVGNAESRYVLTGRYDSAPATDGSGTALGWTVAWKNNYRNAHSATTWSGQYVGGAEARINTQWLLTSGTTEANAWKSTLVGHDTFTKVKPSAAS

Row | SMILES | Fluorescence quantum yield of the dye following coupling to streptavidin in comparison with the uncoupled dye (streptavidin; DOL 2.5, PBS-buffer 25° C.) [%] | Fluorescence quantum yield of the dye following coupling to streptavidin in comparison with the uncoupled dye (streptavidin; DOL 5.5, PBS-buffer 25° C.) [%] | λabs ([1]; solvent water/acetonitrile 1:1) | λfl [2] | formation of colorless lactone or pseudobase [3] | Fluorescence quantum yield of the dye following coupling to streptavidin in comparison with the uncoupled dye (streptavidin; DOL 3.0, PBS-buffer 25° C.) [%] | Fluorescence quantum yield of the dye following coupling to streptavidin in comparison with the uncoupled dye (streptavidin; DOL 5.6, PBS-buffer 25° C.) [%] | Fluorescence quantum yield of the dye following coupling to streptavidin in comparison with the uncoupled dye (streptavidin; DOL 2.8, PBS-buffer 25° C.) [%] | Fluorescence quantum yield of the dye following coupling to streptavidin in comparison with the uncoupled dye (streptavidin; DOL 6.7, PBS-buffer 25° C.) [%] | λabs ([1]; solvent PBS pH 7.4) | Fluorescence quantum yield of the dye following coupling to streptavidin in comparison with the uncoupled dye (streptavidin; DOL 7.0, PBS-buffer 25° C.) [%]
1 | CN(CCCC(=O)O)C(=O)c1ccccc1-c1c2cc(S(=O)(=O)O)/c(=N/Cc3ccc(S(=O)(=O)O)cc3S(=O)(=O)O)cc-2oc2cc(NCc3ccc(S(=O)(=O)O)cc3S(=O)(=O)O)c(S(=O)(=O)O)cc12 [Compound 6] | 42 | 37 | 534^c nm | 559^b nm | easily form a lactone or pseudobase | – | – | – | – | – | –
2 | CN(CCCC(=O)NCCCCCC(=O)O)C(=O)c1ccccc1-c1c2cc(S(=O)(=O)O)/c(=N/Cc3ccc(S(=O)(=O)O)cc3S(=O)(=O)O)cc-2oc2cc(NCc3ccc(S(=O)(=O)O)cc3S(=O)(=O)O)c(S(=O)(=O)O)cc12 [Compound 12] | – | – | 536^c nm | 555^b nm | easily form a lactone or pseudobase | 27 | – | – | – | – | –
3 | CN(CCCC(=O)O)C(=O)c1ccccc1-c1c2cc(S(=O)(=O)O)/c(=N/CCc3ccc(S(=O)(=O)O)cc3)cc-2oc2cc(NCCc3ccc(S(=O)(=O)O)cc3)c(S(=O)(=O)O)cc12 [Compound 19] | – | – | 537^c nm | 560^b nm | easily form a lactone or pseudobase | – | 10 | – | – | – | –
4 | CN(CCCC(=O)O)C(=O)c1ccccc1-c1c2cc(S(=O)(=O)O)/c(=N/CCc3ccc(S(=O)(=O)O)cc3S(=O)(=O)O)cc-2oc2cc(NCCc3ccc(S(=O)(=O)O)cc3S(=O)(=O)O)c(S(=O)(=O)O)cc12 [Compound 25] | – | – | – | 560^b nm | easily form a lactone or pseudobase | – | – | 45 | 35 | 539^b nm | –
5 | CN(CCCC(=O)O)C(=O)c1ccccc1-c1c2cc/c(=N/CCc3ccc(S(=O)(=O)O)cc3)c(S(=O)(=O)O)c-2oc2c(S(=O)(=O)O)c(NCCc3ccc(S(=O)(=O)O)cc3)ccc12 [Compound 26] | – | – | 538^c nm | 558^b nm | – | – | – | – | – | – | 8
